{"source": "patent EP4620480A1", "about": "“IMPLANTATION FACILITATOR, AND SCREENING SYSTEM THEREFOR” (Kansai Medical University Educational Corporation, priority 2022, dated 2025)", "key": {"[1]": {"test_system": "B6D2F 1 mouse embryos", "test": "Embryo development after transfer with peptide-supplemented medium (Example 7)", "format": "in vivo", "settings": "blastocysts in KSOM medium with 32 µM Iznm-2, transferred to pseudopregnant ICR mice, examined at E14", "experimental": "In order to examine the effect of the peptide medicament on embryo development, the following experiment was performed. ICR male mice at 8 weeks of age were vasectomized. ICR female mice in proestrus were mated with the vasectomized male mice, and the female mice having developed a copulation plug on the following day were used as pseudopregnant female mice. Two days after confirming the presence of the copulation plug, B6D2F 1 mouse embryos that had developed into blastocysts were transferred to the female mice. The blastocysts were added to KSOM medium supplemented with 32 µM Iznm-2 immediately before the transfer, and the embryos were transferred together with the medium. The amount of the medium injected into the uterus at the time of transfer was 5 µl or less. The embryo transfer was performed in the following manner. The pseudopregnant female mice were anesthetized, and the skin on one side in the dorsum and the abdominal wall of each mouse were incised to expose the uterus to the outside of the body. The uterus was pierced through with a 26-G needle, and the embryos were injected into the thus-formed hole together with the medium using a glass tube. After the transfer, the uterus was returned to the body, and the incision was sutured. The transferred embryos were allowed to develop in the recipient mice until E14. […]"}, "[2]": {"test": "Blood tests on maternal bodies after intraperitoneal administration", "format": "in vivo", "settings": "female mice, 8 µM with respect to total weight, in corn oil, blood 24 hours after administration", "experimental": "An excess amount of Iznm-2 was administered intraperitoneally to female mice to examine the side effects of the peptide medicament. In Example 8, […] Iznm-2 was administered together with 5 µl or less of the embryos to the uterus of each mouse. In the present experiment, Iznm-2 was administered in such a manner that the concentration thereof would be 8 µM with respect to the total weight of each mouse. Iznm-2 was dissolved in corn oil. As a control, corn oil without the peptide medicament was administered. Blood samples were collected 24 hours after the administration, and blood components serving as indicators of the condition of the liver and kidney were analyzed."}}, "note": "Peptide text beside a SMILES is read from it. * marks the point of attachment. Myristoyl = CCCCCCCCCCCCCC(=O)*", "data": [{"smiles": "CCCCCCCCCCCCCC(=O)N[C@@H](CCCCN)C(=O)N[C@@H](Cc1ccccc1)C(=O)N[C@@H](CCC(=O)O)C(=O)N[C@@H](CCC(=O)O)C(=O)N[C@@H](CCC(=O)O)C(=O)N[C@@H](CCCNC(=N)N)C(=O)N[C@@H](CO)C(=O)N[C@@H](CCCNC(=N)N)C(=O)N[C@@H](CS)C(=O)N[C@@H](CCCCN)C(=O)N[C@@H](Cc1c[nH]c2ccccc12)C(=O)N[C@@H](CCSC)C(=O)N[C@H](C(=O)O)[C@@H](C)O", "note": "[Iznm-2, Myr-KFEEERSRCKWMT] (Myristoyl-KFEEERSRCKWMT-OH)", "values": [{"measurement": "development of transferred embryos", "setting": "[1]", "value": "developed normally"}, {"measurement": "CRE", "setting": "[2]; Kidney", "value": 0.12, "unit": "mg/dL"}, {"measurement": "LAP", "setting": "[2]; Liver & Kidney", "value": 26, "unit": "IU/L"}, {"measurement": "TP", "setting": "[2]; Liver & Kidney", "value": 5.1, "unit": "g/dL"}, {"measurement": "A/G", "setting": "[2]; Liver", "value": 1.85}, {"measurement": "ALB", "setting": "[2]; Liver", "value": 3.3, "unit": "g/dL"}, {"measurement": "ALP", "setting": "[2]; Liver", "value": 463, "unit": "IU/L"}, {"measurement": "ALT", "setting": "[2]; Liver", "value": 38, "unit": "IU/L"}, {"measurement": "ChE", "setting": "[2]; Liver", "value": 32.5, "unit": "IU/L"}, {"measurement": "D-BIL", "setting": "[2]; Liver", "value": 0.02, "unit": "mg/dL"}, {"measurement": "I-BIL", "setting": "[2]; Liver", "value": 0.02, "unit": "mg/dL"}, {"measurement": "T-BIL", "setting": "[2]; Liver", "value": 0.08, "unit": "mg/dL"}, {"measurement": "γ-GT", "setting": "[2]; Liver", "value": 3, "unit": "IU/L"}]}]}
